Data on three molecules can be found in article PMC12704579, “New Anticancer 4‐Aryldihydropyrimidinone‐5‐Carboxylates Targeting Hsp90” (Chemical Biology & Drug Design, 2025).

For one data set, the system named is HCC1954 cells. The arrangement: method as in Bordoni [2016]. The conditions noted are these: invasive breast cancer cell line HCC1954; ref Bordoni [2016]; cited from earlier work.
For a further data set, the system named is Bcl3-p50. The arrangement: method as in Soukupová [2013]. The conditions noted are these: ref Soukupová [2013]; cited from earlier work.
Data set [1] is described as follows: CellTiter-Blue cell viability assay, HEK-293 (24 h). It counts as cell-based, human. To be noted: human, HEK-293 cells, CellTiter-Blue, 24 h incubation, 10 μM test compound, standardised to DMSO control. The method, then:
(§1) Human Embryonic Kidney cells (HEK‐293) and human breast cancer cells (MCF‐7, MDA‐MB‐231 and HCC1954) were cultured in complete growth media: […] 1X (Gibco); 10% v/v Fetal Bovine Serum (FBS, Sigma Dorset UK) and L‐glutamine (2 mM, Invitrogen). SW‐480‐WT cells were maintained in selective media made up of Dulbecco's Modified Eagle Medium (Gibco), enriched with […] of Geneticin Selective Antibiotic (G418 Sulfate; Gibco, Thermo Fisher). Cells were incubated at a 5% CO2 atmosphere at 37°C.
(§2) Cells were cultured in 96‐well plates in 90 μL at a seeding density of 1 × 10^6 cells per well. Compound samples were prepared at different concentrations (1 mM, 100 μM, 10 μM, 1 μM, 100 nM, 10 nM) and 10 μL of each concentration was seeded in each well. Two different negative controls were used: DMSO 0.01% and 0.001%. Paclitaxel (30% w/v) was used as a positive control. Cells were treated for 24 h after which 20 μL of CellTitre‐Blue reagent (Promega, Southampton, UK) was added and incubated for 2 h at 37°C in 5% CO2. Fluorescence was measured at 560/590 nm on a Fluorostar Optima plate reader (BMG Labtech, Bucks, UK). Assay end points were normalised to 0% (DMSO only) and fitted to a semilog plot using at least n = 3 technical replicates (n = 6 for DMSO control and paclitaxel control) and N = 3 independent replicates. The curve fit was performed using the GraphPad Prism software and the standard Hill equation.
(§3) In view of previous reports on Hsp90 inhibitors and their effects on cancer cell viability (Eachkoti et al. [2014]) and clonogenicity (Kinzel et al. [2016]), new compounds were tested for inhibition of cell viability within both non‐tumourigenic (HEK‐293) and breast cancer cell lines (MDA‐MB‐231) at a fixed concentration of 10 μM. The well‐established CellTiter‐Blue endpoint assay was used to assess cell viability. New compounds were also assessed in a colony forming assay (MCF‐7 breast cancer cell line), used as an efficacy screening to provide an indication of the inhibition of clonogenicity for these small molecules (Table 1).

The test system of another data set is HEK-293 cells. The data set is described as above. The conditions noted are these: Homo sapiens, HEK293; 24 h incubation time. It counts as cell-based, human. The method, then:
as §1, §2, §3

Another data set concerns MDA-MB-231 cells. As to the kind of experiment: CellTiter-Blue cell viability assay, MDA-MB-231 (24 h). It counts as cell-based, human. To be noted: Homo sapiens, MDA-MB-231, 24 h; for GI50: 24 h incubation time; for viability at 10 µM: CellTiter-Blue, 24 h incubation, 10 μM test compound, standardised to DMSO control. The protocol:
as §1, §2, §3
Background: Alamar Blue is a resazurin reagent that responds to reducing activity.

Another data set concerns MCF-7 cells. In words: Colony forming assay, MCF-7. The conditions noted are these: for IC50: Homo sapiens, MCF7, 168 h, 7 days; for % Clonogenicity (MCF-7, 10 μM): percentage of survival colonies, 7-day incubation, standardised to DMSO control. It counts as cell-based, human. The method, then: as §1
Cells were seeded in a 12‐well plate at 400 cells per well. One hour after the seeding of the cells, compounds (1 mM, 100 μM, 10 μM, 1 μM, 100 nM, 10 nM) or vehicle were added into the wells in triplicate (DMSO vehicle 0.1% and 1%). After 7 days, colonies were stained with 350 μL of crystal violet solution, incubated for 30 min at room temperature, then wells were washed in water and dried. At least the best 3 independent experiments out of 5 independent repeats were used to perform the statistical analysis of the results. Colonies were counted by GelCount Colony Counter (Oxford Optronix Ltd.) using the GelCount 1.1.8.0 software. Assay end points were normalised to 0% (DMSO only) and fitted to a semi‐log plot using at least n = 3 technical replicates (n = 6 for DMSO control and N = 3 independent replicates). The curve fit was performed using GraphPad Prism.
as §3

The target of data set [2] is T1, Recombinant human Hsp90 alpha protein (Homo sapiens, UniProt P07900).
T1 construct: human full‐length protein, expressed in Escherichia coli; His tag (C); purchased Abcam ab80369; host or cells: Escherichia coli
As to the kind of experiment: Transcreener ADP FP Hsp90 ATPase assay. It counts as biochemical. To be noted: Recombinant human HSP90, 100 μM ATP; read-out: ATPase assay on rh-Hsp90 IC50. The protocol:
Transcreener ADP (cat. no. 3004‐1K) and ADP2 (cat. no. 3010‐1K) FP assay kits were obtained from Bellbrook Laboratories. Recombinant human Hsp90 alpha protein (active), human full‐length protein, expressed in Escherichia coli with > 90% purity and C‐terminus His tag, was purchased from Abcam (ab80369). All FP assays were carried out in black, 384‐well, low‐volume, polystyrene nonbinding microplates from Corning Life Sciences. All basic buffer components were obtained from Sigma‐Aldrich Chemical Co. 17‐AAG (Figure 1) was obtained from Abcam. Using the Transcreener ADP FP kit, the conditions for the recombinant human Hsp90 ATPase reaction were 50 mM HEPES (pH 7.4), 20 mM KCl, 2 mM EGTA, 4 mM MgCl2, and 0.01% Brij‐35 in a 10‐μL total assay volume. The final assay concentration of ATP was 100 μM for Hsp90. Due to the relatively low level of ATPase activity compared with other enzymes, the plate was incubated at 37°C and run over 1, 2 and 3 h time points. The reaction was stopped, and the ADP was detected by adding 10 μL of 50 mM HEPES (pH 7.4), 400 mM NaCl, 20 mM EDTA, 0.01% Brij35, 75 μg/mL anti‐ADP monoclonal antibody, and 4 nM ADP far red tracer. The plate was sealed, centrifuged at 600 g for 1 min, and left at room temperature for 1 h. FP readings for the Hsp90 ATPase Transcreener assays were performed on a Clariostar plate reader ([…]). A blank mP signal composed of protein, antibody, labelled ADP, but no ATP substrate gave similar mP values to those seen in the no‐protein controls. The upper limit of the assay window was defined by a no‐protein control, and the mP in the presence of heat shock protein was subtracted from this control to generate a change in polarisation (ΔmP), which was plotted on the activity graphs. Therefore, the data take into account the spontaneous hydrolysis of ATP. Each value is the mean of triplicate determinations with standard deviations (SD) shown. IC50 values were calculated using GraphPad Prism software with the nonlinear regression curve fitted to the log (inhibitor concentration) against the raw mP values on the linear portion of the standard curve.

For the molecule `CCOc1cc(C2NC(=O)NC(C)=C2C(=O)OCc2ccc3c(c2)OCO3)ccc1O` (stereo not shown) [Compound 1], the “Inhibitory activity in colony forming assay, HCC1954” value in the data set with HCC1954 cells is “potent inhibitory activity”. Also, in the data set with Bcl3-p50, the “Activity within the Bcl3-binding assays” value is given as “not active”.
Regarding `CC1=C(C(=O)OCc2ccccc2)C(c2ccccc2F)NC(=O)N1` (stereo not shown) [Compound 5m, Benzyl 4‐(2‐Fluorophenyl)‐6‐Methyl‐2‐Oxo‐1,2,3,4‐Tetrahydropyrimidine‐5‐Carboxylate], the viability (commonly a per cent measure of how many cells are alive, often set against a control) at 24 h, 10 µM in data set [1] was 97.7 ± 3.27%. Further, the GI50 (usually the concentration at which growth is held to half of that of the control) in the data set on HEK-293 cells amounted to 20.4 µM; with MDA-MB-231 cells it was 84.9 µM. Moreover, the viability at 10 µM in the data set with MDA-MB-231 cells came to 95.2 ± 3.72%. Also, the IC50 (in general, the point on the concentration scale where inhibition reaches its midpoint) in the data set with MCF-7 cells is 15.7 µM; in data set [2], 16.6 µM. In addition, the “% Clonogenicity (MCF-7, 10 μM)” value in the data set with MCF-7 cells was 99.95 ± 2.40%.
For the molecule `CC1=C(C(=O)OCc2ccccc2)C(c2ccc(C)cc2F)NC(=O)N1` (stereo not shown) [Compound 5n, Benzyl 4‐(2‐Fluoro‐4‐Methylphenyl)‐6‐Methyl‐2‐Oxo‐1,2,3,4‐Tetrahydropyrimidine‐5‐Carboxylate], the viability at 24 h, 10 µM in data set [1] was found to be 98.7 ± 2.49%. Moreover, the results for the GI50 with HEK-293 cells and in the data set with MDA-MB-231 cells were 39.6 µM and 86.7 µM, respectively. The viability at 10 µM in the data set with MDA-MB-231 cells was determined as 97.3 ± 1.3%. For the same molecule, the results for the IC50 (in the data set on MCF-7 cells; in data set [2]) were 7.17 µM and 74.6 µM, respectively. Also, the “% Clonogenicity (MCF-7, 10 μM)” value in the data set on MCF-7 cells is recorded as 90.54 ± 0.81%.
